These results are taken from BindingDB's records for patent US10954228 (The Trustees of The University of Pennsylvania, 2021).

pIC50: −log10 of the molar value.

This assay deals with L-lactate dehydrogenase A chain (Homo sapiens, UniProt P00338). The assay can be described thus: Biochemical Assay. The method, then: Test compounds were placed in a Greiner Bio-One (Monroe, N.C.) 1536-well black solid bottom assay plate. 200 millimolar (mM) Tris HCl, pH 7.4, 100 micromolar (μM) EDTA and 0.01% TWEEN-20, final concentration, was used as the assay buffer. The LDHA reagent was 2 nanomolar (nM) Human LDHA (Meridian Life Science, Inc., Memphis, Tenn.), final concentration, in assay buffer. The substrate reagent was 0.06 mM NADH and 0.2 mM sodium pyruvate, final concentration, in assay buffer. The resazurin/diaphorase coupling reagent was 0.037 mM resazurin and 0.133 milligrams per milliliter (mg/mL) diaphorase, final concentration, in assay buffer. The inhibition of LDHA activity was measured by fluorescence emission.
The pIC50 is the IC50 on a negative log10 scale, so that one unit is a factor of ten. `CCC#Cc1cc(-c2nn(-c3nc(C(=O)O)cs3)c(CC3CC3)c2Cc2ccc([S+](N)(=O)[O-])c(F)c2)ccc1F` [US10954228, Compound 109] had a pIC50 greater than 7.00.

In turn, `Cc1ccc(C#Cc2cccc(-c3nn(-c4nc(C(=O)O)cs4)c(C4CC4C4CC4)c3Cc3ccc([S+](N)(=O)[O-])c(F)c3)c2)s1` (stereo not given) [US10954228, Compound 134] gave a negative logarithm of the IC50 (pIC50) of 6.00 to 7.00.

The molecule `NS(=O)(=O)c1ccc(Cc2c(-c3cccc(C(=O)N4CCCC4)c3)nn(-c3nc(C(=O)O)cs3)c2CC2CC2)cc1` [US10954228, Compound 145] showed a pIC50 greater than 7.00.

`CC(C)(C)NC(=O)c1cc(-c2nn(-c3nc(C(=O)O)cs3)c(CC3CC3)c2Cc2ccc([S+](N)(=O)[O-])c(F)c2)ccc1F` [US10954228, Compound 147] had a pIC50 greater than 7.00.

As to `CC(C)(C)NC(=O)c1cccc(-c2nn(-c3nc(C(=O)O)cs3)c(CC3CC3)c2Cc2ccc([S+](N)(=O)[O-])cc2)c1` [US10954228, Compound 188], the negative logarithm of the IC50 (pIC50) is greater than 7.00.

With `CN(C)c1ccc(-c2cc(-c3nn(-c4nc(C(=O)O)cs4)c(CC4CC4)c3Cc3ccc(S(N)(=O)=O)c(F)c3)ccc2F)cc1` [US10954228, Compound 190], the negative logarithm of the IC50 (pIC50) is greater than 7.00.

Molecule `NS(=O)(=O)c1ccc(Cc2c(-c3ccc(F)c(-c4cccc(F)c4)c3)nn(-c3nc(C(=O)O)cs3)c2CC2CC2)cc1F` [US10954228, Compound 196] showed a negative-log IC50 (pIC50) greater than 7.00.

In the case of `CC(C)c1ccc(-c2cc(-c3nn(-c4nc(C(=O)O)cs4)c(CC4CC4)c3Cc3ccc(S(N)(=O)=O)c(F)c3)ccc2F)cc1` [US10954228, Compound 199], the negative logarithm of the IC50 (pIC50) is greater than 7.00.

For the molecule `CC(C)c1cnc(-c2cccc(-c3nn(-c4nc(C(=O)O)cs4)c(CC4CC4)c3Cc3ccc(S(N)(=O)=O)c(F)c3)c2)nc1` [US10954228, Compound 216], the pIC50 was greater than 7.00.

Molecule `CC(C)c1ccc(-c2cccc(-c3nn(-c4nc(C(=O)O)cs4)c(CC4CC4)c3Cc3ccc(S(N)(=O)=O)c(F)c3)c2)nc1` [US10954228, Compound 218] showed a pIC50 greater than 7.00.
